{
  "source": "patent US8697739B2",
  "about": "“Bicyclic acetyl-CoA carboxylase inhibitors and uses thereof” (Novartis AG, priority 2010, dated 2014)",
  "biological_target": "T1, human acetyl-CoA carboxylase 2 (ACC2) (Homo sapiens, UniProt O00763)",
  "T1 construct": "The cDNA encoding amino acids 144 to 2458 of human acetyl-CoA carboxylase 2; made in house; host or cells: Sf9 insect cells (baculovirus, pFastBac1)",
  "T1 sequence (O00763 144-2458)": "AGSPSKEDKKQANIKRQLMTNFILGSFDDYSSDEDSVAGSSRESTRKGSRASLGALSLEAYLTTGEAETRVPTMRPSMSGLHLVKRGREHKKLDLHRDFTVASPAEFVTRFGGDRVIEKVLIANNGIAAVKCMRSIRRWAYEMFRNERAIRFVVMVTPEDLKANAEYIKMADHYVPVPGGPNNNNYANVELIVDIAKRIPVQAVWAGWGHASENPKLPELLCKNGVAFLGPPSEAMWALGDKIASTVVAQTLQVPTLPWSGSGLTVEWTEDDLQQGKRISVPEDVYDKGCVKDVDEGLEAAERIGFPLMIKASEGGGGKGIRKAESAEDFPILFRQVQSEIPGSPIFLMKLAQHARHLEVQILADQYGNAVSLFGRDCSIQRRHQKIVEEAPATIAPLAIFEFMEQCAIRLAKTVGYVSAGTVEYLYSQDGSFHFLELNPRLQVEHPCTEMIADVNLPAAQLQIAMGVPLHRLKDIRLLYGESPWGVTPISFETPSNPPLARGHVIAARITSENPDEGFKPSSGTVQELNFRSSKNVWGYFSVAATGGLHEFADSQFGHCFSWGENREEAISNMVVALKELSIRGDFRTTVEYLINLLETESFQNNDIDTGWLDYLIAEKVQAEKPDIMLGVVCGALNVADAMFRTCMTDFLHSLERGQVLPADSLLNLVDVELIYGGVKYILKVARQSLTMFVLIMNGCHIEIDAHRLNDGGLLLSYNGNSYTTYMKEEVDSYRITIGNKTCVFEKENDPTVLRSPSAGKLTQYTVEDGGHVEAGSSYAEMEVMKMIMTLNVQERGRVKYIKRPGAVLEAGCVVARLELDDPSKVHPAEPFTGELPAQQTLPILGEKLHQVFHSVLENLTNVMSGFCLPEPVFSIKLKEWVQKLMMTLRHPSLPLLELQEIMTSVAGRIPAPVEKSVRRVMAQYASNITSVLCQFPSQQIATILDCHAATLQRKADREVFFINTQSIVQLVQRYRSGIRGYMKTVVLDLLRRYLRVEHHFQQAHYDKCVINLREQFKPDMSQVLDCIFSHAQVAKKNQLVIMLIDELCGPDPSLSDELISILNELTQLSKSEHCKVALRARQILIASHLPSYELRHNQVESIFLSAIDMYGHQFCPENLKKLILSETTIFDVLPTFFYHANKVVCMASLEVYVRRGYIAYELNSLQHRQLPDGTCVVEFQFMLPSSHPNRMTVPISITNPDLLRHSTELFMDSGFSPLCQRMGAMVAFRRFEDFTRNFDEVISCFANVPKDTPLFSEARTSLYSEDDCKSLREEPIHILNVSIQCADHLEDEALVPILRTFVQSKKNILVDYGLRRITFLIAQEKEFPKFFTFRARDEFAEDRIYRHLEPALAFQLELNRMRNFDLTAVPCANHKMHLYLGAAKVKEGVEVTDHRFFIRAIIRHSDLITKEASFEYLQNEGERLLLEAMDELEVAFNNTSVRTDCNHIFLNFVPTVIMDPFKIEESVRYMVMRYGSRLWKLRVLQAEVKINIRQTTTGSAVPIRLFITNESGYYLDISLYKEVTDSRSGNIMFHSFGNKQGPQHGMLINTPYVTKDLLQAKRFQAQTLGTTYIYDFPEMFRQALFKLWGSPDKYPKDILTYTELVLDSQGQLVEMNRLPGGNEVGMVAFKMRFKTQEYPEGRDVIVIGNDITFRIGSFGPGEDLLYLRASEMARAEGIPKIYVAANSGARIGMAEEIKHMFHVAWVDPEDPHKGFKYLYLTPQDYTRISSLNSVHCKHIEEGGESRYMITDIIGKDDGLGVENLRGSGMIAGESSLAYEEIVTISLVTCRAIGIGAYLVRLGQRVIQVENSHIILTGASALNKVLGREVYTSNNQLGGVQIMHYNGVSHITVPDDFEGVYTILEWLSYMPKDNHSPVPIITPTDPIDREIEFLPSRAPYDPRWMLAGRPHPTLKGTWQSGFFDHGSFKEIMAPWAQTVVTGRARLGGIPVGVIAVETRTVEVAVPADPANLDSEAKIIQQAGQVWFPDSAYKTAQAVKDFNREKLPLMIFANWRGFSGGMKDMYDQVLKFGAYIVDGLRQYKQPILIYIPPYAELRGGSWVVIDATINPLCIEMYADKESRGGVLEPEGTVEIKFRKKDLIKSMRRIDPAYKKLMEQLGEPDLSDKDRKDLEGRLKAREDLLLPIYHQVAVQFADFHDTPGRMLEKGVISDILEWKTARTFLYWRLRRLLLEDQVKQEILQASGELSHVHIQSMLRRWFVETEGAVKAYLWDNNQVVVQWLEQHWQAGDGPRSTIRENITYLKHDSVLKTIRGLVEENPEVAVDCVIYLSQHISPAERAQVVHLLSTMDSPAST",
  "assay": "Acetyl-CoA carboxylase enzyme assay (malonyl-CoA formation by LC/MS/MS)",
  "format": "biochemical",
  "conditions": "recombinant human ACC2 (aa 144-2458); read-out: IC50 ACC2",
  "source_text": "The cDNA encoding amino acids 144 to 2458 of human acetyl-CoA carboxylase 2 (ACC2, GenBank Accession #NM_001093) was cloned into the SalI and NotI sites of pFastBac1 (Invitrogen; Carlsbad, Calif.). The resulting plasmid was used to generate a recombinant ACC2 baculovirus that was amplified and titered according to the protocols in the Bac-to-Bac baculovirus expression system manual (Invitrogen). The titered virus was used to infect Sf9 cells grown in Ex-Cell 420 serum-free medium (JRH Biosciences; Lenexa, Kans.). At 48 hours post-infection, the cells were harvested and stored at −80° C. until purification. ACC2 was purified using ammonium sulfate precipitation and anion exchange chromatography.\nThe enzymatic assay was run as follows: 30 μL of reaction buffer (100 mM HEPES pH 7.5, 20 mM MgCl2, 20 mM potassium citrate, 2 mM DTT) was added to a 384-well microtiter plate followed by 2 μL of the test compound (or 100% DMSO control). ACC2 protein (10 μL of a 50 nM working solution) was added to plate, which was incubated at room temperature for 15 minutes. A 30 μL addition of substrate solution (50 μM acetyl-CoA, 120 μM ATP, 2 mM KHCO3) was used to initiate the reactions which were quenched with 6% acetic acid (40 μL). ACC catalyzed malonyl-CoA formation was detected by LC/MS/MS using a Cohesive Technologies LX Series multiplex LC/MSIMS system configured with four binary pumps (Agilent Technologies; Palo Alto, Calif.), a dual arm autosampler (Leap Technologies; Cary, N.C.), and one Quattro Micro triple quadrupole mass spectrometer (Waters, Milford, Mass.), all run by Aria Software version 1.5 (Cohesive Technologies; Franklin, Mass.). Four samples were injected (20 μL) onto four Phenosphere NEXT C18 30×2 mm 5 μm columns (Phenomenex; Torrance, Calif.), eluted by four separate pumps, running identical gradients, through a column switching manifold with the one outlet fitted to the electrospray (ESI) source. Malonyl-CoA was eluted with 5 mM ammonium acetate, pH 4.5 (Buffer A) and 100% acetonitrile (Buffer B) via a step gradient. Argon was used as the collision gas and the following species were monitored via MRM detection: malonyl-CoA (853.8>346.9), internal standard (A: [^13C3]-malonyl-CoA, 857>350). The lower limit of detection is 0.3 uM for malonyl-CoA in this assay.",
  "data": [
    {"compound": "C[C@@H](NC(=O)[C@H]1CC[C@H](NS(=O)(=O)c2ccc3[nH]c(-c4ccccc4)nc3c2)CC1)c1ccccc1", "note": "[Example 1, (1r,4R)-4-(2-phenyl-1H-benzo[d]imidazole-5-sulfonamido)-N—((R)-1-phenylethyl)cyclohexanecarboxamide]", "values": [
      {"measurement": "IC50", "result": 13, "unit": "nM"}
    ]},
    {"compound": "CCOC(=O)c1cccc(-c2nc3ccc(S(=O)(=O)N[C@H]4CC[C@H](C(=O)N[C@H](C)c5ccccc5)CC4)cc3[nH]2)c1", "note": "[Example 2, ethyl 3-(6-(N-((1R,4r)-4-((R)-1-phenylethylcarbamoyl)cyclohexyl)sulfamoyl)-1H-benzo[d]imidazol-2-yl)benzoate]", "values": [
      {"measurement": "IC50", "result": 19, "unit": "nM"}
    ]},
    {"compound": "C[C@@H](NC(=O)[C@H]1CC[C@H](NS(=O)(=O)c2ccc3[nH]c([C@@H]4CCCN4)nc3c2)CC1)c1ccc(F)cc1", "note": "[Example 3, (1r,4R)—N—((R)-1-(4-fluorophenyl)ethyl)-4-(2-((S)-pyrrolidin-2-yl)-1H-benzo[d]imidazole-5-sulfonamido)cyclohexanecarboxamide]", "values": [
      {"measurement": "IC50", "result": 507, "unit": "nM"}
    ]},
    {"compound": "C[C@@H](NC(=O)[C@H]1CC[C@H](NS(=O)(=O)c2ccc3c(c2)nc(-c2ccccc2)n3C)CC1)c1ccc(F)cc1", "note": "[Example 4, (1r,4R)—N—((R)-1-(4-fluorophenyl)ethyl)-4-(1-methyl-2-phenyl-1H-benzo[d]imidazole-5-sulfonamido)cyclohexanecarboxamide]", "values": [
      {"measurement": "IC50", "result": 13, "unit": "nM"}
    ]},
    {"compound": "Cc1nc2cc(S(=O)(=O)N[C@H]3CC[C@H](C(=O)N[C@H](C)c4ccc(F)cc4)CC3)ccc2n1C", "note": "[Example 5, (1r,4R)-4-(1,2-dimethyl-1H-benzo[d]imidazole-5-sulfonamido)-N—((R)-1-(4-fluorophenyl)ethyl)cyclohexanecarboxamide]", "values": [
      {"measurement": "IC50", "result": 244, "unit": "nM"}
    ]},
    {"compound": "C[C@@H](NC(=O)[C@H]1CC[C@H](NS(=O)(=O)c2ccc3nc(C4CCOCC4)[nH]c3c2)CC1)c1ccc(F)cc1", "note": "[Example 6, (1r,4R)—N—((R)-1-(4-fluorophenyl)ethyl)-4-(2-(tetrahydro-2H-pyran-4-yl)-1H-benzo[d]imidazole-6-sulfonamido)cyclohexanecarboxamide]", "values": [
      {"measurement": "IC50", "result": 156, "unit": "nM"}
    ]},
    {"compound": "CC(C)N(C)C(=O)[C@H]1CC[C@H](NS(=O)(=O)c2ccc3[nH]c(Nc4ccccc4)nc3c2)CC1", "note": "[Example 7, (1r,4r)-N-isopropyl-N-methyl-4-(2-(phenylamino)-1H-benzo[d]imidazole-5-sulfonamido)cyclohexanecarboxamide]", "values": [
      {"measurement": "IC50", "result": 71, "unit": "nM"}
    ]},
    {"compound": "CC(=O)Nc1ccc(-c2nc3ccc(S(=O)(=O)N[C@H]4CC[C@H](C(=O)OC(C)C)CC4)cc3[nH]2)cc1", "note": "[Example 8, (1r,4r)-isopropyl 4-(2-(4-acetamidophenyl)-1H-benzo[d]imidazole-5-sulfonamido)cyclohexanecarboxylate]", "values": [
      {"measurement": "IC50", "result": 45, "unit": "nM"}
    ]},
    {"compound": "CN1CCN(c2ccc(Nc3nc4cc(S(=O)(=O)N[C@H]5CC[C@H](c6nnc(C(C)(C)C)o6)CC5)ccc4[nH]3)cc2)CC1", "note": "[Example 9, N-((1r,4r)-4-(5-tert-butyl-1,3,4-oxadiazol-2-yl)cyclohexyl)-2-(4-(4-methylpiperazin-1-yl)phenylamino)-1H-benzo[d]imidazole-5-sulfonamide]", "values": [
      {"measurement": "IC50", "result": 47, "unit": "nM"}
    ]},
    {"compound": "CN1CCN(c2ccc(-c3nc4cc(S(=O)(=O)N[C@H]5CC[C@H](c6nnc(C(C)(C)C)o6)CC5)ccc4[nH]3)cc2)CC1", "note": "[Example 10, N-((1r,4r)-4-(5-tert-butyl-1,3,4-oxadiazol-2-yl)cyclohexyl)-2-(4-(4-methylpiperazin-1-yl)phenyl)-1H-benzo[d]imidazole-5-sulfonamide]", "values": [
      {"measurement": "IC50", "result": 115, "unit": "nM"}
    ]},
    {"compound": "C[C@@H](NC(=O)[C@H]1CC[C@H](NS(=O)(=O)c2ccc3nc(-c4ccccc4)oc3c2)CC1)c1ccc(F)cc1", "note": "[Example 11, N—((R)-1-(4-fluorophenyl)ethyl)-4-(2-phenylbenzo[d]oxazole-6-sulfonamido)cyclohexanecarboxamide]", "values": [
      {"measurement": "IC50", "result": 48, "unit": "nM"}
    ]},
    {"compound": "C[C@@H](NC(=O)[C@H]1CC[C@H](NS(=O)(=O)c2ccc3c(ccn3C)c2)CC1)c1ccc(F)cc1", "note": "[Example 12, (1r,4R)—N—((R)-1-(4-fluorophenyl)ethyl)-4-(1-methyl-1H-indole-5-sulfonamido)cyclohexanecarboxamide]", "values": [
      {"measurement": "IC50", "result": 55, "unit": "nM"}
    ]},
    {"compound": "C[C@@H](NC(=O)[C@H]1CC[C@H](NS(=O)(=O)c2ccc3[nH]c(-c4ccccc4)cc3c2)CC1)c1ccccc1", "note": "[Example 13, (1r,4R)-4-(2-phenyl-1H-indole-5-sulfonamido)-N—((R)-1-phenylethyl)cyclohexanecarboxamide]", "values": [
      {"measurement": "IC50", "result": 65, "unit": "nM"}
    ]},
    {"compound": "C[C@@H](NC(=O)[C@H]1CC[C@H](NS(=O)(=O)c2ccc3c(c2)cc(-c2ccccc2)n3C)CC1)c1ccc(F)cc1", "note": "[Example 14, (1r,4R)—N—((R)-1-(4-fluorophenyl)ethyl)-4-(1-methyl-2-phenyl-1H-indole-5-sulfonamido)cyclohexanecarboxamide]", "values": [
      {"measurement": "IC50", "result": 10, "unit": "nM"}
    ]},
    {"compound": "Cn1c(-c2ccccc2)cc2cc(S(=O)(=O)N[C@H]3CC[C@H](C(=O)N[C@@H](c4ccccc4)C(C)(C)O)CC3)ccc21", "note": "[Example 15, (1r,4S)—N—((S)-2-hydroxy-2-methyl-1-phenylpropyl)-4-(1-methyl-2-phenyl-1H-indole-5-sulfonamido)cyclohexanecarboxamide]", "values": [
      {"measurement": "IC50", "result": "< 10", "unit": "nM"}
    ]},
    {"compound": "C[C@@H](NC(=O)[C@H]1CC[C@H](NS(=O)(=O)c2ccc3[nH]ccc3c2)CC1)c1ccc(F)cc1", "note": "[Example 16, (1r,4R)—N—((R)-1-(4-fluorophenyl)ethyl)-4-(1H-indole-5-sulfonamido)cyclohexanecarboxamide]", "values": [
      {"measurement": "IC50", "result": 51, "unit": "nM"}
    ]},
    {"compound": "Cc1cn(C)c2ncc(S(=O)(=O)N[C@H]3CC[C@H](C(=O)N[C@H](C)c4ccc(F)cc4)CC3)cc12", "note": "[Example 17]", "values": [
      {"measurement": "IC50", "result": 65, "unit": "nM"}
    ]},
    {"compound": "C[C@@H](NC(=O)[C@H]1CC[C@H](NS(=O)(=O)c2ccc3cc(-c4ccccc4)[nH]c3c2)CC1)c1ccc(F)cc1", "note": "[Example 18, (1r,4R)—N—((R)-1-(4-fluorophenyl)ethyl)-4-(2-phenyl-1H-indole-6-sulfonamido)cyclohexanecarboxamide]", "values": [
      {"measurement": "IC50", "result": 11, "unit": "nM"}
    ]},
    {"compound": "C[C@@H](NC(=O)[C@H]1CC[C@H](NS(=O)(=O)c2ccc3cc(-c4ccccc4)[nH]c3c2)CC1)c1ccccn1", "note": "[Example 19, (1r,4R)-4-(2-phenyl-1H-indole-6-sulfonamido)-N—((R)-1-(pyridin-2-yl)ethyl)cyclohexanecarboxamide]", "values": [
      {"measurement": "IC50", "result": 56, "unit": "nM"}
    ]},
    {"compound": "C[C@@H](NC(=O)[C@H]1CC[C@H](NS(=O)(=O)c2ccc3cc(-c4ccccc4)n(C)c3c2)CC1)c1ccc(F)cc1", "note": "[Example 20, (1r,4R)—N—((R)-1-(4-fluorophenyl)ethyl)-4-(1-methyl-2-phenyl-1H-indole-6-sulfonamido)cyclohexanecarboxamide]", "values": [
      {"measurement": "IC50", "result": "< 10", "unit": "nM"}
    ]},
    {"compound": "Cn1c(-c2ccccc2)c(Cl)c2ccc(S(=O)(=O)N[C@H]3CC[C@H](C(=O)N4CCN[C@H](C(F)(F)F)C4)CC3)cc21", "note": "[Example 21, 3-chloro-1-methyl-2-phenyl-N-((1S,4r)-4-((S)-3-(trifluoromethyl)piperazine-1-carbonyl)cyclohexyl)-1H-indole-6-sulfonamide]", "values": [
      {"measurement": "IC50", "result": "< 10", "unit": "nM"}
    ]},
    {"compound": "CC(C)[C@H]1COCCN1C(=O)[C@H]1CC[C@H](NS(=O)(=O)c2ccc3cc(C4CC4)n(C)c3c2)CC1", "note": "[Example 22, 2-cyclopropyl-N-((1S,4r)-4-((S)-3-isopropylmorpholine-4-carbonyl)cyclohexyl)-1-methyl-1H-indole-6-sulfonamide]", "values": [
      {"measurement": "IC50", "result": 70, "unit": "nM"}
    ]},
    {"compound": "Cn1c(C2CC2)c(C#N)c2ccc(S(=O)(=O)N[C@H]3CC[C@H](C(=O)N4CCOCC4)CC3)cc21", "note": "[Example 23, 3-cyano-2-cyclopropyl-1-methyl-N-((1r,4r)-4-(morpholine-4-carbonyl)cyclohexyl)-1H-indole-6-sulfonamide]", "values": [
      {"measurement": "IC50", "result": 150, "unit": "nM"}
    ]}
  ]
}
